We go through 1 molecule from patent US7915050B2, “Regulatory genes for plant differentiation and growth, and use of the same” (National University Corporation Nagoya University, priority 2005, dated 2011).

SMILES strings stand for the structures.

One assay addresses T1, AtGID1c (Arabidopsis thaliana, UniProt Q940G6).
T1 construct: made in house; host or cells: E. coli
T1 sequence (Q940G6 1-344): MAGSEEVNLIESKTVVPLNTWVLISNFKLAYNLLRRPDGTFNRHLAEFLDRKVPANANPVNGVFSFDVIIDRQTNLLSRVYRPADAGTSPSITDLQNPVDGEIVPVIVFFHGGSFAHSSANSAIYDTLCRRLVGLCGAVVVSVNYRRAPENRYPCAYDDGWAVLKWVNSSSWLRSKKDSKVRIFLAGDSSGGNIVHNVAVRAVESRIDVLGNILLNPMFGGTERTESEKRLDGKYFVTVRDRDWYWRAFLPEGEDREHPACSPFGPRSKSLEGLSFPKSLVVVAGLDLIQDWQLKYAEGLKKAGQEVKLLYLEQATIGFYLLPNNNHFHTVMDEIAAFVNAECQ
The experiment in a line: Competitive ability of GA in AtGID1-GA binding (AtGID1c). Here is the method: In the gibberellin-binding assay, [1,2,16,17-^3H4]16,17-dihydro-GA4 was used as a labeled GA4. In vitro GA-binding assays were carried out using previous methods with some modifications (Nakajima, M. et al., Biochem. Biophys. Res. Comm. 241, 782-786 (1997)). The purified recombinant GID1 protein (400 pmol) was dissolved in 300 μl of binding buffer [20 mM Tris-HCl (pH 7.6), 5 mM 2-mercaptoethanol, and 0.1 M NaCl], and incubated with 100 μl of ^3H4-16,17-dihydroGA4 (6 pmol) for two hours at 25° C., either in the absence of non-labeled GA4 (total binding) or in the presence of 833-fold excess non-labeled GA4 (total non-specific binding). Then, 0.1 ml of the reaction mixture was loaded onto a NAP-5 column (Amersham Biosciences, Piscataway, N.J.). The eluate of the binding buffer (0.6 ml) was discarded, the subsequent eluate (0.2 ml) was collected, and the radioactivity was measured. The specific binding activity, reflecting the number of displaceable GA binding sites, was calculated by subtracting the amount of nonspecific binding from the amount of total binding. The same as above can also be carried out for other GAs.
Specifically, the coding region of the AtGID1 gene was amplified by PCR using specific primers designed based on the full-length cDNA sequence of the AtGID1 gene and having appropriate restriction sites at each end. After confirmation by sequence analysis, each cDNA fragment was ligated into pET32a vector (Novagen/Merck Biosciences, Madison, Wis., USA) or pGEX-4T-2 vector (Amersham Biosciences, Piscataway, N.J., USA; currently, a part of GE Healthcare). The production of recombinant proteins was confirmed by SDS-PAGE; vector cassettes were used as negative controls. GA binding assays were carried out similarly as described above using [1,2,16,17-^3H4]-16,17-dihydro-GA4 (4.55 TBq/mmol), which was custom-made by DuPont/NEN (Boston, Mass., USA). Non-labeled GA4 (1.25 mM) was used to measure non-specific binding. Saturation experiments for the kinetic analysis were carried out using ten concentrations of 16,17-dihydro-GA4 within the range of 25 to 1,500 nM. Competition assays were performed using [1,2,16,17-^3H4]-16,17-dihydro-GA4 at 15 nM and five concentrations of the non-labeled competitor. Recombinant RGA and GAI proteins were prepared using pET32a by a previously described method.
The ligand selectivity of each AtGID1 was examined by observing the competitive inhibition, by the addition of GA to the assay mixtures, of the binding between the recombinant proteins and tritiated 16,17-dihydro-GA4 (Table 2). The ligand selectivity was evaluated using the concentration of GA that inhibits 50% of the tracer (15 nM) binding (IC50 value).

Assay [1] deals with T2, AtGID1c in the presence of GAI (Arabidopsis thaliana, UniProt Q940G6).
T2 construct: made in house; host or cells: E. coli (stated for AtGID1)
T2 sequence (Q940G6 1-344): T1 sequence (Q940G6 1-344)
T2 sequence (Q9LQT8 1-533 partner): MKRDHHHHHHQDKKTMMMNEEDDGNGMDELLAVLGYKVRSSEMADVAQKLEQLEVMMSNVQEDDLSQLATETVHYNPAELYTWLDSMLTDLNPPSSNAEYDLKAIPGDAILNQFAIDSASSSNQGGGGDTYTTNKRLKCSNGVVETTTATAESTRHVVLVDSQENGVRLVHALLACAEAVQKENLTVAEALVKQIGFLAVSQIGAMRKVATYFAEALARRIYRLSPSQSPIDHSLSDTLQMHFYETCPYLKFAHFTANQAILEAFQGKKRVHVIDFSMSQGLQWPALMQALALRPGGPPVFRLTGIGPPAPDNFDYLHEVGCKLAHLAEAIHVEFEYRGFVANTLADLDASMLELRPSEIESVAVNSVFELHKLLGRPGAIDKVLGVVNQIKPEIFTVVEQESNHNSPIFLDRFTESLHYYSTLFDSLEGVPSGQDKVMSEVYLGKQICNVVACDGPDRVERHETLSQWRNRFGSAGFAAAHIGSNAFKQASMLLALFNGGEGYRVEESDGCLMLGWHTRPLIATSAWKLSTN
The experiment in a line: Scatchard analysis of AtGID1c-GA binding in the presence of GAI. On the procedure: Panel A) depicts AtGID1-AtDELLA interaction in the presence of GA in two types of yeast hybrid (Y2H) assays. Each AtGID1 was used as a bait while AtDELLA was a prey. GA4 (10^−5 M) was added to the medium. The bars indicates β-galactosidase activity when o-nitrophenol-β-D-galactopyranoside was used as a substrate (Assay B). The growth of each transformant in the defined medium for 2 days (Assay A) is shown beneath of each bar graph. The experiment was carried out in quadruplicate. The SD value shown in the figure was determined from three measurements. Panel B) depicts the dose response in AtGID1-RGA interaction in Assay B of Y2H. GA4 (10^−5 to 10^−9 M) was added to the medium. The experiment was conducted in […]. The SD value shown in the figure was determined from three measurements. Panel C) depicts the results of an evaluation of the in vitro GA-binding potency of AtGID1 using AtDELLA. […] GAI (G) or RGA (R) was added, and then the GA-binding activity in each reaction mixture was measured according to the standard method. […] The SD value was determined from three measurements. […]
Next, whether AtDELLAs exert some kind of influence on the GA-binding activity of AtGID1s was examined in vitro. After labeled 16,17-dihydro-GA4 and AtGID1s were combined, AtDELLAs were added to the solutions, and the GA-binding activity was measured. […]

Regarding `CC1C[C@]23C[C@H]1CCC2[C@]12CC[C@H](O)[C@](C)(C(=O)O1)[C@H]2[C@@H]3C(=O)O` (stereo partly drawn) [H2-GA4, 16,17-dihydro-GA4], on AtGID1c, the “relative value, taking the value for GA4 as 100” value is on record as “(6) %”. The molecule also yielded an IC50 at AtGID1c (tracer 15 nM, mean of at least two measurements) of 5 µM. Besides, the Kd in assay [1] was determined as 0.046 µM.

The term IC50 denotes the concentration at which inhibition is half-maximal. A low value points to greater potency. By Kd is commonly meant the constant that tells how readily two partners part at equilibrium.
